Source: patent publication US20260130906A1, “THERAPY COMPRISING ANTI-CD19 ANTIBODY AND SUMO-ACTIVATING ENZYME INHIBITOR” (TAKEDA PHARMACEUTICAL COMPANY LIMITED, priority 2021, published 2026)

Columns and labels:
[1] = test system: OCI-Ly10 human xenograft tumor model; assay: Study 2: OCI-Ly10 human xenograft tumor model; assay type: in vivo, CB17 SCID mice; settings: for GRI % / Tumor volume on Day 25 (±SEM): OCI-Ly10; for GRI %: Day 25, vs vehicle; for Tumor volume on Day 25 (±SEM): in mm³ (unit assumed); for tumor growth inhibition as a single agent (in words): human OCI-Ly10 DLBCL mouse model
Procedure: The differences in the tumor growth trends over time between pairs of treatment groups were assessed by fitting each animal's data to a simple exponential growth model and comparing the mean growth rates of the two groups, as described in more detail below. The difference in the growth rates was summarized by the GRI, which is the reduction in growth rate experienced by the treatment group relative to that of the reference group, expressed as a fraction of the vehicle growth rate.
A GRI greater than 100% is interpreted as tumor regression when the vehicle group is the same as the reference group. A negative value of the GRI means that the tumors in the treatment group grew faster than the tumors in the reference group. Statistical significance was determined using an unpaired t-test.
Low tumor volumes can cause problems with the data analysis, so all measurements below 25 cubic mm (including 0 values) were excluded from the analysis. After this exclusion step, the tumor volume was assumed to follow an exponential growth model. More specifically, for a given animal and treatment group,
Combination analysis was performed to determine if there was a benefit from combining drug treatments. This analysis was also based on the estimated tumor growth rates. The measure of synergy was defined as
Here, μAB, μA, μB, and μControl are the mean growth rates for the combination, drug A, drug B, and control groups, respectively. As before, μV is the mean tumor growth rate for the vehicle group, which in most cases is the same as the control group. The standard error of the synergy score was calculated as the square root of the sum of squared standard errors across the four groups. The degrees of freedom were estimated using the Welch-Satterthwaite equation. A hypothesis test was performed to determine if the synergy score differed from 0. P-values were calculated by dividing the synergy score by its standard error and tested against a t-distribution (two-tailed) with the above-calculated degrees of freedom. A P value of less than 0.05 is statistically significant.
The combination results can be interpreted as follows. Statistically significant negative synergy scores indicate a synergistic combination (“Syn.”). Statistically significant positive synergy scores indicate a sub-additive combination (“Sub-add.”) when the combination performs better (i.e. has a lower growth rate) than the best performing single agent. Statistically significant positive synergy scores indicate an antagonistic combination (“Antag.”) when the combination performs worse than the best performing single agent. Scores that are not statistically significant should be considered additive (“Add.”).
OCI-Ly10 is a human DLBCL cell line. An OCI-Ly10 human xenograft tumor model was generated by subcutaneous inoculation in the flank of 8 week old female CB17 SCID mice (Charles River Laboratories, Wilmington, MA) with 4.0×10^6 OCI-Ly10 cells (cell suspension in 0.1 ml IMDM with Matrigel 1:1). When the mean tumor volume reached approximately 175 mm^3, the animals were randomized into one vehicle control group and 7 treatment groups (n=7/group) as described in Table 2a. Mice were then dosed with 20% HPβCD or Compound I-263a and/or tafasitamab over a 3 week period. In the combination treatment groups, I-263a was administered first, followed immediately by the administration of tafasitamab. Tumor growth and body weight were measured twice per week during the treatment and post-treatment periods, and mice were humanely euthanized once they had reached their humane endpoint. Tumors were measured using Vernier calipers and volumes were calculated using standard equation: V=W^2×L/2, where V=volume, W=width, and L=length for the tumor.
A 0.75 mg/mL stock solution of I-263a was formulated weekly in 20% HPβCD and administered intravenously (IV) based on an average body weight using a 0.2 mL dosing volume. Final dose of I-263a received was 7.5 mg/kg. […]

lymphoma cell lines = assay: ADCC assay (PBMC effector cells); assay type: cell-based; settings: PBMCs pre-treated 0.1 μM TAK-981 17-24 h and/or 1 nM tafasitamab; E:T 10:1; 2 h; FIG. 1
Procedure: A panel of 9 aggressive lymphoma cell lines was analyzed (7 DLBCL and 2 Burkitt lymphoma). OCI-LY10 and TMD8 cells were cultured in Iscove's modified Dulbecco medium supplemented with either 20% human plasma or 10% FCS. All other cell lines were cultured in RPMI medium (Gibco) supplemented with 10%-20% FCS (Sigma). Cells were cultured at 37° C. in 5% CO2.
Whole Blood was collected from healthy volunteers. PBMCs were isolated via density-gradient centrifugation using Biocoll (Biochrome) or Pancoll (PAN Biotech) separating solution and SepMate tubes (STEMCELL Technologies).
PBMC effector cells were treated with 0.1 μM TAK-981 or DMSO as negative control for 17-24 hours. Target cells were stained with 1 μM carboxyfluorescein succinimidyl ester (CFSE). Subsequently, target cells were incubated with pre-treated PBMCs at an effector to target (E:T) ratio of 10:1 in the presence or absence of 1 nM tafasitamab for 2 hours at 37° C. and 5% CO2. Dead cells were stained with 1 μg/ml 4′,6-diamidino-2-phenylindole (DAPI) and flow cytometry was used to determine cytotoxicity against target cells: Cells were gated for viable (DAPI negative) and dead target cells (DAPI positive). The specific cytotoxicity was defined as the percentages of dead target cells in the treated sample substracted by the percentage of dead target cells in the control sample without antibody.

| Compound | GRI % ([1]; I-263a 7.5 mg/kg IV BIW) | Tumor volume on Day 25 (±SEM) ([1]; I-263a 7.5 mg/kg IV BIW 3 weeks) | tumor growth inhibition as a single agent (in words) [1] | Specific killing of lymphoma cell lines (specific cytotoxicity) (lymphoma cell lines) | GRI % ([1]; tafasitamab 3 mg/kg IP BIW) | GRI % ([1]; tafasitamab 10 mg/kg IP BIW) | GRI % ([1]; tafasitamab 20 mg/kg IP BIW) | Tumor volume on Day 25 (±SEM) ([1]; tafasitamab 3 mg/kg IP BIW 3 weeks) | Tumor volume on Day 25 (±SEM) ([1]; tafasitamab 10 mg/kg IP BIW 3 weeks) | Tumor volume on Day 25 (±SEM) ([1]; tafasitamab 20 mg/kg IP BIW 3 weeks) |
| --- | --- | --- | --- | --- | --- | --- | --- | --- | --- | --- |
| Cc1sc(C(=O)c2cncnc2N[C@@H]2C[C@H](COS(N)(=O)=O)[C@@H](O)C2)cc1[C@@H]1NCCc2ccc(Cl)cc21 [Compound I-263a, [(1R,2S,4R)-4-{[5-({4-[(1R)-7-chloro-1,2,3,4-tetrahydroisoquinolin-1-yl]-5-methyl-2-thienyl}carbonyl)pyrimidin-4-yl]amino}-2-hydroxycyclopentyl]methyl sulfamate] | 55% | 615.9 ± 106.4 | inhibits tumor growth | resulted in specific killing | – | – | – | – | – | – |
| Tafasitamab: humanized monoclonal antibody that targets the antigen CD19, engineered in the IgG Fc-region to enhance ADCC; sequences in Table 1 | – | – | inhibits tumor growth | resulted in specific killing | 37% | 43% | 36% | 701 ± 94.2 | 745.1 ± 154.2 | 809.2 ± 129.1 |
